{"source": "patent US7812178B2", "about": "“Isoquinoline compound and pharmaceutical use thereof” (Mitsubishi Tanabe Pharma Corporation, priority 2002, dated 2010)", "key": {"recombinant human PARP": {"target": "T1, recombinant human PARP (Homo sapiens, UniProt P09874)", "T1 construct": "purchased Trevigen 4667-02X", "T1 sequence (P09874 whole entry)": "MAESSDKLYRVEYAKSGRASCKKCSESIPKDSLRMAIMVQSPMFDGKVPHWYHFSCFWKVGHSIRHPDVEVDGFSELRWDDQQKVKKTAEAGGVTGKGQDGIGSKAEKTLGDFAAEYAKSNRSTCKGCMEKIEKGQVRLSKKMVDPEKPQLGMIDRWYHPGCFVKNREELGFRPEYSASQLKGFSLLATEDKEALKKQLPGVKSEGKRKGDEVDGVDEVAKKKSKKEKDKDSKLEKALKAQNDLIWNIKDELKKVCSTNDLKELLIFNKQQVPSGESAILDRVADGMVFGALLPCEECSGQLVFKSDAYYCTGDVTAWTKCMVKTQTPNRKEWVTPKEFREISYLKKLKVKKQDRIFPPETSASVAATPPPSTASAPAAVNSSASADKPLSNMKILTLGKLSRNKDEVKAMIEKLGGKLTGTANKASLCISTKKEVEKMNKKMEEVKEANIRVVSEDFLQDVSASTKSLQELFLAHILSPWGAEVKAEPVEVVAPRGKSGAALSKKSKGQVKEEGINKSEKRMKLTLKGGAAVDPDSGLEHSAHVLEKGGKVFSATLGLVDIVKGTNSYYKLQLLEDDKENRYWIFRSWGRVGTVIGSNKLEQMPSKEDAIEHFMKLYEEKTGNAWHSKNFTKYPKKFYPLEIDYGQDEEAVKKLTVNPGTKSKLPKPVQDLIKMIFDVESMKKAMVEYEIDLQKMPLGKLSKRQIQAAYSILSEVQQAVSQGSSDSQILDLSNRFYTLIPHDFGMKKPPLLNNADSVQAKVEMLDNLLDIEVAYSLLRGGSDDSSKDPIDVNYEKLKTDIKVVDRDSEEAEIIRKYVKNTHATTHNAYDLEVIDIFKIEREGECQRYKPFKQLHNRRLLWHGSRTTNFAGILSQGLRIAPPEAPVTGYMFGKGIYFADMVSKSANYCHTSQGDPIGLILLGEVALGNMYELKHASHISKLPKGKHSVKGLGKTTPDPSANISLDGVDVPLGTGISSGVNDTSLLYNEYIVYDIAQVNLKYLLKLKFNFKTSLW", "test": "PARP enzyme activity inhibitory action (3H-NAD poly ADP-ribosylation, filter assay)", "format": "biochemical", "details": "25° C., 15 min", "method": "After incubation at 25° C. for 15 min., the reaction was stopped with 20% trichloroacetic acid, and the resulting acid insoluble fraction was adsorbed to a GF/B filter. The filter was washed several times with 5% trichloroacetic acid, and the radiation dose on the filter was measured with a liquid scintillation counter."}, "[1]": {"test": "Determination of stability in physiological saline at room temperature (residual ratio by HPLC)", "format": "physicochemical", "details": "for Residual rate (%) under non-shielding 7 days later / Residual rate (%) under shielding 7 days later: day 7; for Residual rate (%) under non-shielding 11 days later / Residual rate (%) under shielding 11 days later: day 11", "method": "Each compound was dissolved in physiological saline to give solutions having a concentration of 1.0 mg/mL or 10 mg/mL. They were preserved at room temperature, under shielding or non-shielding and the residual ratio at day 7 and day 11 was measured by HPLC. […]\ncolumn: Inertsil ODS3V (GL Science Inc.)\nMobile phase: methanol: 0.01 mol/L aqueous ammonium acetate solution detection wavelength: 254 nm"}, "[2]": {"details": "1.0 mg/mL in physiological saline"}, "[3]": {"details": "10 mg/mL in physiological saline"}}}
{"compound": "Cc1cccc2c(=O)[nH]c(C3CCN(CCO)C3)cc12", "note": "(stereo not shown) [Ex. 28a, 3-[1-(2-hydroxyethyl)pyrrolidin-3-yl]-5-methyl-2H-isoquinolin-1-one]", "values": [{"measurement": "IC50", "setting": "recombinant human PARP", "value": 35, "unit": "nM"}]}
{"compound": "Cc1cccc2c(=O)[nH]c(CCN3CCC(O)C3)cc12", "note": "(stereo not shown) [Ex. 5a, 3-[2-(3-hydroxypyrrolidin-1-yl)ethyl]-5-methyl-2H-isoquinolin-1-one]", "values": [{"measurement": "IC50", "setting": "recombinant human PARP", "value": 50, "unit": "nM"}]}
{"compound": "Cc1cccc2c(=O)[nH]c(CCN3CCC[C@@H]3CO)cc12", "note": "[Ex. 36a, (R)-3-[2-(2-hydroxymethylpyrrolidin-1-yl)ethyl]-5-methyl-2H-isoquinolin-1-one]", "values": [{"measurement": "Residual rate (%) under non-shielding 7 days later", "setting": "[1]; [2]", "value": "≈100%"}, {"measurement": "Residual rate (%) under non-shielding 11 days later", "setting": "[1]; [2]", "value": "≈100%"}, {"measurement": "Residual rate (%) under shielding 7 days later", "setting": "[1]; [2]", "value": "≈100%"}, {"measurement": "Residual rate (%) under shielding 11 days later", "setting": "[1]; [2]", "value": "≈100%"}, {"measurement": "Residual rate (%) under non-shielding 7 days later", "setting": "[1]; [3]", "value": "≈100%"}, {"measurement": "Residual rate (%) under non-shielding 11 days later", "setting": "[1]; [3]", "value": "≈100%"}, {"measurement": "Residual rate (%) under shielding 7 days later", "setting": "[1]; [3]", "value": "≈100%"}, {"measurement": "Residual rate (%) under shielding 11 days later", "setting": "[1]; [3]", "value": "≈100%"}, {"measurement": "IC50", "setting": "recombinant human PARP", "value": 29, "unit": "nM"}]}
{"compound": "Cc1cccc2c(=O)[nH]c(CCN3CCCC(O)C3)cc12", "note": "(stereo not shown) [Example 32a, 3-[2-(3-hydroxypiperidin-1-yl)ethyl]-5-methyl-2H-isoquinolin-1-one]", "values": [{"measurement": "melting point", "value": "184 to 185", "unit": "°C"}]}
{"compound": "Cc1cccc2c(=O)[nH]c(CCN3CC[C@H](O)C3)cc12", "note": "[Ex. 34a, (S)-3-[2-(3-hydroxypyrrolidin-1-yl)ethyl]-5-methyl-2H-isoquinolin-1-one]", "values": [{"measurement": "IC50", "setting": "recombinant human PARP", "value": 34, "unit": "nM"}, {"measurement": "melting point", "value": "176 to 178", "unit": "°C"}]}
{"compound": "Cc1cccc2c(=O)[nH]c(C3CCN(CCO)C3)cc12", "note": "(single isomer, unassigned; (+)) [Ex. 38a, (+)-3-[1-(2-hydroxylethyl)pyrrolidin-3-yl]-5-methyl-2H-isoquinolin-1-one]", "values": [{"measurement": "IC50", "setting": "recombinant human PARP", "value": 29, "unit": "nM"}, {"measurement": "melting point", "value": "137 to 138.6", "unit": "°C"}]}
{"compound": "Cc1cccc2c(=O)[nH]c(CCN3CCC[C@@H](O)C3)cc12", "note": "[Example 35a, (R)-3-[2-(3-hydroxypiperidin-1-yl)ethyl]-5-methyl-2H-isoquinolin-1-one]", "values": [{"measurement": "melting point", "value": "180 to 181", "unit": "°C"}]}
{"compound": "Cc1cccc2c(=O)[nH]c(C3CCN(CCO)CC3)cc12", "note": "[Ex. 2a, 3-[1-(2-hydroxyethyl)piperidin-4-yl]-5-methyl-2H-isoquinolin-1-one]", "values": [{"measurement": "Residual rate (%) under non-shielding 7 days later", "setting": "[1]; [2]", "value": "≈100%"}, {"measurement": "Residual rate (%) under non-shielding 11 days later", "setting": "[1]; [2]", "value": "≈100%"}, {"measurement": "Residual rate (%) under shielding 7 days later", "setting": "[1]; [2]", "value": "≈100%"}, {"measurement": "Residual rate (%) under shielding 11 days later", "setting": "[1]; [2]", "value": "≈100%"}, {"measurement": "Residual rate (%) under non-shielding 7 days later", "setting": "[1]; [3]", "value": "≈100%"}, {"measurement": "Residual rate (%) under non-shielding 11 days later", "setting": "[1]; [3]", "value": "≈100%"}, {"measurement": "Residual rate (%) under shielding 7 days later", "setting": "[1]; [3]", "value": "≈100%"}, {"measurement": "Residual rate (%) under shielding 11 days later", "setting": "[1]; [3]", "value": "≈100%"}, {"measurement": "IC50", "setting": "recombinant human PARP", "value": 17, "unit": "nM"}]}
{"compound": "Cc1cccc2c(=O)[nH]c(CCCN3CCC(O)C3)cc12", "note": "(stereo not shown) [Ex. 4a, 3-[3-(3-hydroxypyrrolidin-1-yl)propyl]-5-methyl-2H-isoquinolin-1-one]", "values": [{"measurement": "IC50", "setting": "recombinant human PARP", "value": 46, "unit": "nM"}]}
{"compound": "Cc1cccc2c(=O)[nH]c(C3CCN(CCCO)CC3)cc12", "note": "[Example 23a, 5-methyl-3-[1-(3-hydroxypropyl)piperidin-4-yl]-2H-isoquinolin-1-one]", "values": [{"measurement": "melting point", "value": "197 to 199", "unit": "°C"}]}
{"compound": "Cc1cccc2c(=O)[nH]c(C3CCN(CCO)C3)cc12", "note": "(single isomer, unassigned; (-)) [Ex. 37a, (−)-3-[1-(2-hydroxylethyl)pyrrolidin-3-yl]-5-methyl-2H-isoquinolin-1-one]", "values": [{"measurement": "IC50", "setting": "recombinant human PARP", "value": 20, "unit": "nM"}, {"measurement": "melting point", "value": "137.3 to 138.6", "unit": "°C"}]}
{"compound": "O=c1[nH]c(C2CCN(CCO)CC2)cc2ccccc12", "note": "[Ex. 9a, 3-[1-(2-hydroxyethyl)piperidin-4-yl]-2H-isoquinolin-1-one]", "values": [{"measurement": "IC50", "setting": "recombinant human PARP", "value": 44, "unit": "nM"}]}
{"compound": "Cc1cccc2c(=O)[nH]c(CCN3CC[C@@H](O)C3)cc12", "note": "[Ex. 1a, (R)-3-[2-(3-hydroxypyrrolidin-1-yl)ethyl]-5-methyl-2H-isoquinolin-1-one]", "values": [{"measurement": "Residual rate (%) under non-shielding 7 days later", "setting": "[1]; [2]", "value": "≈100%"}, {"measurement": "Residual rate (%) under non-shielding 11 days later", "setting": "[1]; [2]", "value": "≈100%"}, {"measurement": "Residual rate (%) under shielding 7 days later", "setting": "[1]; [2]", "value": "≈100%"}, {"measurement": "Residual rate (%) under shielding 11 days later", "setting": "[1]; [2]", "value": "≈100%"}, {"measurement": "Residual rate (%) under non-shielding 7 days later", "setting": "[1]; [3]", "value": "≈100%"}, {"measurement": "Residual rate (%) under non-shielding 11 days later", "setting": "[1]; [3]", "value": "≈100%"}, {"measurement": "Residual rate (%) under shielding 7 days later", "setting": "[1]; [3]", "value": "≈100%"}, {"measurement": "Residual rate (%) under shielding 11 days later", "setting": "[1]; [3]", "value": "≈100%"}, {"measurement": "IC50", "setting": "recombinant human PARP", "value": 39, "unit": "nM"}]}
